# Key:
# [1] = system: DNA plasmid pcDNA 3.1 HisC (8.2 kb); test: Digestion of plasmid DNA with restriction enzyme Bam H1 after incubation with compounds (agarose gel electrophoresis); assay type: biochemical; conditions: compound 2 or 20 µM, overnight incubation at 37°C, then BamH1 2U/sample for 3 hours at 37°C; gel not shown
# Experimental: The impact of compounds 1a and 1b has been tested on the digestion of DNA plasmid pcDNA 3.1 HisC (8.2 kb) with restriction enzyme Bam H1.
# 1. For this purpose, pcDNA 3.1 HisC plasmid DNA (0.6 µg) was dissolved in 1×BamH1 buffer and incubated overnight at 37°C with the following reference or test compounds:
# The concentration of the reference and test compounds in each sample was 2 or 20 µM.
# 2. After overnight incubation, the reaction mixture was digested with BamH1 restriction enzyme (2U/sample) for 3 hours at 37°C. The total volume of the samples was 10 µL.
# 3. The reaction products were applied on 1% agarose gel and electrophoresis was performed in TAE buffer.
# [2] = system: synthetic DNA duplex (23 nt- 5'TCTTCAAGAATTCAGGTCCTGAT 3'); test: Circular dichroism (CD) spectra of DNA with test compounds; assay type: binding; conditions: DNA duplex 2µM, compound 20µM, 0.2% DMSO, PBS, 23°C, immediately after addition
# Experimental: The ability of the test compounds 1a and 1b to interact with DNA was tested by the circular dichroism (CD) technique.
# 1. For this purpose, samples were prepared in PBS buffer containing: 2µM of synthetic DNA duplex (23 nt- 5'TCTTCAAGAATTCAGGTCCTGAT 3') or DNA of bovine thymus (0.2 mg/ml) and test compounds at a concentration of 20µM or 40µM for synthetic DNA duplex sample and thymus DNA sample, respectively. The samples contained 0.2% or 0.4% DMSO (for synthetic DNA duplex sample and thymus DNA sample, respectively), which is a solvent of the test compounds.
# 2. CD spectra (in the range from 200 nm to 320 nm) were recorded immediately after addition of the test compounds as well as after 1.5 h incubation. The measurement was carried out at 23°C in a quartz cuvette (optical path length 0.5 cm) using a spectroscope CD6 (Jobin-Yvon, France).
# 3. CD spectra of DNA incubated with the test compounds were compared with the control spectrum (spectrum was recorded for a sample of DNA (2µM or 0.2 mg/ml) in the presence of DMSO (final concentration of 0.2% or 0.4%).
SMILES,interaction with plasmid DNA: resistance to digestion by the endonucleolytic enzyme Bam H1 [1],change of CD spectrum of duplex DNA compared to the control (duplex DNA + DMSO) [2]
COP(=O)(OC)/C(=C/c1ccc2ccc3cccc4ccc1c2c34)C(=O)c1ccc2c(c1)OCO2 [Compound 1a],increasing its resistance to digestion,changes compared to the control sample
"O=C(/C(=C/c1ccc2ccc3cccc4ccc1c2c34)P(=O)(O)O)c1ccc2c(c1)OCO2 [Compound 1b, (Z)-3-(benzo[d][1,3]dioxol-5-yl)-1-(pyrene-1-yl)-3-oxoprop-1-en-2-ylphosphonic acid]",increasing its resistance to digestion,changes compared to the control sample
"COc1cccc2c1C(=O)c1c(O)c3c(c(O)c1C2=O)C[C@@](O)(C(C)=O)C[C@@H]3O[C@H]1C[C@H](N)[C@H](O)[C@H](C)O1 [Daunorubicin, reference compound]",increasing its resistance to digestion,changing significantly its structure

# Source: patent EP2787001A1, “(E)-3-Aryl-3-oxoprop-1-enyl-2-phosphonic acid and its derivatives, methods for their preparation and their use” (Centrum Badan Molekularnych I Makromolekularnych Polskiej …, priority 2013, dated 2014)
